Assay results from ChEMBL document CHEMBL1201862, “PubChem BioAssay data set” (2004).
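The compound was tested at five concentrations on cells cultured in 96-well plates, with a 48-hour exposure period. Here, GI50 denotes the concentration required for 50% inhibition of growth.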 The source made the active and inactive calls. Rule as the data show it: active = GI50 up to about 1.1 µM and inactive = higher. Where a SMILES comes first, the peptide text is derived from it. [ ]: non-standard residue; d: D form. The star is where a group is joined. ξ: configuration not given here. ξD = NC(CC(=O)O)C(=O)O; Ac3c = NC1(C(=O)O)CC1; Boc = CC(C)(C)OC(=O)*; OBn = c1ccc(CO*)cc1

How the values were obtained:
Test in all cases: NCI-60 cell line screen, 48 h
NCI-H23 = test system: NCI-H23
SNB-19 = test system: SNB-19
PC-3 = test system: PC-3
CCRF-CEM = test system: CCRF-CEM
HCT-15 = test system: HCT-15
HL-60 = test system: HL-60
UACC-257 = test system: UACC-257
SK-MEL-28 = test system: SK-MEL-28
CAKI-1 = test system: CAKI-1
SF-295 = test system: SF-295
NCI/ADR-RES = test system: NCI/ADR-RES
SK-MEL-5 = test system: SK-MEL-5
COLO 205 = test system: COLO 205
A549 = test system: A549
HCC 2998 = test system: HCC 2998
NCI-H460 = test system: NCI-H460
OVCAR-4 = test system: OVCAR-4
BT-549 = test system: BT-549
RPMI-8226 = test system: RPMI-8226
Hs-578T = test system: Hs-578T

SMILES	GI50 (NCI-H23)	GI50 (SNB-19)	GI50 (PC-3)	GI50 (CCRF-CEM)	GI50 (HCT-15) [µM]	GI50 (HL-60)	GI50 (UACC-257)	GI50 (SK-MEL-28)	GI50 (CAKI-1)	GI50 (SF-295)	GI50 (NCI/ADR-RES)	GI50 (SK-MEL-5)	GI50 (COLO 205)	GI50 (A549)	GI50 (HCC 2998)	GI50 (NCI-H460)	GI50 (OVCAR-4)	GI50 (BT-549)	GI50 (RPMI-8226)	GI50 (Hs-578T)
CC(=O)[C@H]1[C@H](O)C[C@@]2(C)[C@@H]3CCc4cc(O)c(OC5OC(CO)C(O)C(O)C5O)cc4C3(C)C(=O)C[C@]12C (stereo partly drawn)	> 100 µM (inactive)	> 100 µM (inactive)	> 100 µM (inactive)	> 100 µM (inactive)	> 100	> 100 µM (inactive)	> 100 µM (inactive)	> 100 µM (inactive)	> 100 µM (inactive)	> 100 µM (inactive)	> 100 µM (inactive)	> 100 µM (inactive)	> 100 µM (inactive)	> 100 µM (inactive)	> 100 µM (inactive)	> 100 µM (inactive)	> 100 µM (inactive)	> 100 µM (inactive)	–	–
Cc1c(O)c(OC2OC(CO)C(O)C(O)C2O)cc2c1C=C[C@@H]1[C@@]2(C)C(=O)C[C@]2(C)[C@@H]([C@@](C)(O)C(O)/C=C/C(C)(C)O)[C@H](O)C[C@@]12C (stereo partly drawn)	> 100 µM (inactive)	> 100 µM (inactive)	> 100 µM (inactive)	> 100 µM (inactive)	> 100	> 100 µM (inactive)	> 100 µM (inactive)	> 100 µM (inactive)	> 100 µM (inactive)	> 100 µM (inactive)	> 100 µM (inactive)	> 100 µM (inactive)	> 100 µM (inactive)	> 100 µM (inactive)	> 100 µM (inactive)	> 100 µM (inactive)	> 100 µM (inactive)	> 100 µM (inactive)	–	–
N=C(N)C1CN(CCc2c[nH]cn2)C(=O)NC1=O (stereo not drawn)	> 100 µM (inactive)	> 100 µM (inactive)	> 100 µM (inactive)	> 100 µM (inactive)	> 100	> 100 µM (inactive)	> 100 µM (inactive)	> 100 µM (inactive)	> 100 µM (inactive)	> 100 µM (inactive)	–	> 100 µM (inactive)	> 100 µM (inactive)	> 100 µM (inactive)	> 100 µM (inactive)	> 100 µM (inactive)	> 100 µM (inactive)	> 100 µM (inactive)	> 100 µM (inactive)	> 100 µM (inactive)
C=C(C)[C@@H]1CC[C@@]2(C)[C@H]1[C@H]1CCC3[C@@]4(C)CC[C@H](O)C(C)(C)[C@@H]4CC[C@@]3(C)[C@]1(C)C[C@@H]2O (stereo partly drawn) [CALENDULADIOL]	> 100 µM (inactive)	54.7 µM (inactive)	39.4 µM (inactive)	19.2 µM (inactive)	18.5	19.5 µM (inactive)	55.2 µM (inactive)	> 100 µM (inactive)	48.4 µM (inactive)	23.7 µM (inactive)	56.9 µM (inactive)	19.1 µM (inactive)	–	11.1 µM (inactive)	–	23 µM (inactive)	–	> 100 µM (inactive)	–	–
Cc1nnc2sc(NN)nn12	> 100 µM (inactive)	> 100 µM (inactive)	> 100 µM (inactive)	41.4 µM (inactive)	> 100	–	> 100 µM (inactive)	> 100 µM (inactive)	> 100 µM (inactive)	> 100 µM (inactive)	> 100 µM (inactive)	> 100 µM (inactive)	> 100 µM (inactive)	> 100 µM (inactive)	–	> 100 µM (inactive)	> 100 µM (inactive)	> 100 µM (inactive)	> 100 µM (inactive)	> 100 µM (inactive)
COCOc1ccc(C(=O)C(C)c2ccc(OCOC)cc2OCOC)c(O)c1 (stereo not drawn)	60.8 µM (inactive)	> 100 µM (inactive)	48.9 µM (inactive)	83.4 µM (inactive)	78.9	30.9 µM (inactive)	56.4 µM (inactive)	> 100 µM (inactive)	52.1 µM (inactive)	–	–	37 µM (inactive)	> 100 µM (inactive)	97.3 µM (inactive)	> 100 µM (inactive)	> 100 µM (inactive)	> 100 µM (inactive)	60.5 µM (inactive)	71.1 µM (inactive)	–
COC(=O)C1(NC(=O)C(CC(=O)OCc2ccccc2)NC(=O)OC(C)(C)C)CC1 (stereo not drawn) (Boc-[ξD](OBn)-[Ac3c]-OMe)	> 100 µM (inactive)	> 100 µM (inactive)	> 100 µM (inactive)	> 100 µM (inactive)	> 100	–	> 100 µM (inactive)	> 100 µM (inactive)	> 100 µM (inactive)	> 100 µM (inactive)	> 100 µM (inactive)	> 100 µM (inactive)	> 100 µM (inactive)	> 100 µM (inactive)	–	> 100 µM (inactive)	> 100 µM (inactive)	> 100 µM (inactive)	> 100 µM (inactive)	> 100 µM (inactive)
CCCCCC#CCOC(=O)C(=[N+]=[N-])P(=O)(c1ccccc1)c1ccccc1	> 10 µM (inactive)	> 10 µM (inactive)	> 10 µM (inactive)	–	> 10	> 10 µM (inactive)	> 10 µM (inactive)	> 10 µM (inactive)	–	> 10 µM (inactive)	–	> 10 µM (inactive)	–	> 10 µM (inactive)	> 10 µM (inactive)	> 10 µM (inactive)	–	> 10 µM (inactive)	9.84 µM (inactive)	> 10 µM (inactive)
Cc1nn(C(=O)Cc2ccccc2)c2c1C(c1ccc(/C=C/c3ccccc3)cc1)SC(=N)N2 (stereo not drawn)	> 100 µM (inactive)	> 100 µM (inactive)	> 100 µM (inactive)	> 100 µM (inactive)	> 100	> 100 µM (inactive)	> 100 µM (inactive)	> 100 µM (inactive)	> 100 µM (inactive)	> 100 µM (inactive)	–	> 100 µM (inactive)	> 100 µM (inactive)	> 100 µM (inactive)	> 100 µM (inactive)	> 100 µM (inactive)	–	> 100 µM (inactive)	> 100 µM (inactive)	> 100 µM (inactive)
C1=C(c2ccccc2)Nc2nnnn2C1c1ccccc1 (stereo not drawn)	> 100 µM (inactive)	49.4 µM (inactive)	53.2 µM (inactive)	0.0125 µM (active)	15.3	21.9 µM (inactive)	48.1 µM (inactive)	–	47.6 µM (inactive)	28.6 µM (inactive)	44 µM (inactive)	40.7 µM (inactive)	48.6 µM (inactive)	44.5 µM (inactive)	–	34 µM (inactive)	–	–	< 0.01 µM (active)	37.5 µM (inactive)
CSc1nc(=S)[nH]c2c1c(C)nn2-c1ccccc1	17.6 µM (inactive)	23.3 µM (inactive)	25.7 µM (inactive)	10.6 µM (inactive)	20.3	28.1 µM (inactive)	20.5 µM (inactive)	38.8 µM (inactive)	21.2 µM (inactive)	22.9 µM (inactive)	–	13.1 µM (inactive)	20.1 µM (inactive)	31.3 µM (inactive)	30.6 µM (inactive)	10.2 µM (inactive)	17.2 µM (inactive)	19.7 µM (inactive)	6.73 µM (inactive)	38 µM (inactive)
CCOP(=O)(/C=C\n1cnc2c(=O)n(C(C)=O)c(N)nc21)OCC	> 100 µM (inactive)	> 100 µM (inactive)	22.5 µM (inactive)	> 100 µM (inactive)	> 100	> 100 µM (inactive)	> 100 µM (inactive)	> 100 µM (inactive)	> 100 µM (inactive)	> 100 µM (inactive)	> 100 µM (inactive)	> 100 µM (inactive)	> 100 µM (inactive)	> 100 µM (inactive)	–	> 100 µM (inactive)	> 100 µM (inactive)	> 100 µM (inactive)	> 100 µM (inactive)	–
Cc1nn(C)c2nc3ccc(Cl)cc3c(-c3ccccc3)c12	> 100 µM (inactive)	> 100 µM (inactive)	> 100 µM (inactive)	> 100 µM (inactive)	> 100	> 100 µM (inactive)	> 100 µM (inactive)	> 100 µM (inactive)	> 100 µM (inactive)	> 100 µM (inactive)	> 100 µM (inactive)	–	> 100 µM (inactive)	79.6 µM (inactive)	> 100 µM (inactive)	> 100 µM (inactive)	> 100 µM (inactive)	> 100 µM (inactive)	> 100 µM (inactive)	–
NN/C(=N\S(=O)(=O)c1cc2ccccc2s1)Nc1ccc(Cl)cc1	20.3 µM (inactive)	27 µM (inactive)	22.2 µM (inactive)	–	30.5	22.4 µM (inactive)	18.5 µM (inactive)	25.1 µM (inactive)	18.5 µM (inactive)	19.9 µM (inactive)	20 µM (inactive)	17.9 µM (inactive)	17.3 µM (inactive)	19.4 µM (inactive)	–	18.5 µM (inactive)	17.5 µM (inactive)	18.9 µM (inactive)	16 µM (inactive)	–
COc1cccc2c1C(=O)c1c(O)c3c(c(O)c1C2=O)C[C@@](O)(/C(C)=N\O)C[C@@H]3OC1CC(N)C(O)C(C)O1 (stereo partly drawn)	1.26 µM (inactive)	0.78 µM (active)	1.36 µM (inactive)	0.187 µM (active)	28.7	0.218 µM (active)	1.78 µM (inactive)	1.64 µM (inactive)	1.93 µM (inactive)	1.38 µM (inactive)	–	0.643 µM (active)	0.955 µM (active)	0.968 µM (active)	0.834 µM (active)	0.268 µM (active)	4.46 µM (inactive)	1.72 µM (inactive)	0.592 µM (active)	1.77 µM (inactive)
